Test results: patent publication US10308637B2 (LifeSci Pharmaceuticals, Inc., priority 2015, dated 2019)
pEC50: −log10 of the molar value.

Test: Contact Assay (percentage inhibition from fluorescence intensity)
Type: biochemical
Experimental: The percentage inhibition was calculated using the following equation:
[formula] where, Mean(BG) is the average value of the fluorescence intensity of the background wells and Mean(PC) is the average value of the fluorescence intensity of the positive control wells.
Table 4 provides the EC50 values of various compounds disclosed herein.
With `Cc1cnc2c(S(C)(=O)=O)cc(Cc3cc(C(=O)NCc4c(C)cc(N)nc4C)ccn3)cc2c1` [Example 15, N-((6-amino-2,4-dimethylpyridin-3-yl)methyl)-2-((3-methyl-8-(methylsulfonyl)quinolin-6-yl)methyl)isonicotinamide] the pEC50 was at least 7.00. With `Cc1cnc2c(S(C)(=O)=O)cc(Cc3cc(C(=O)NCc4ccc5c(N)nccc5c4)ccn3)cc2c1` [Example 16, N-((1-aminoisoquinolin-6-yl)methyl)-2-((3-methyl-8-(methylsulfonyl)quinolin-6-yl)methyl)isonicotinamide] the pEC50 was at least 7.00. Molecule `Cc1cnc2c(S(C)(=O)=O)cc(Cc3cc(C(=O)NCc4cc5c(Cl)c[nH]c5cc4F)ccn3)cc2c1` [Example 17, N-((3-chloro-6-fluoro-1H-indol-5-yl)methyl)-2-((3-methyl-8-(methylsulfonyl)quinolin-6-yl)methyl)isonicotinamide] has a pEC50 of at least 7.00. Work on `Cc1cnc2c(S(C)(=O)=O)cc(Cc3cc(C(=O)NCc4cc5cc[nH]c5cc4F)ccn3)cc2c1` [Example 18, N-((6-fluoro-1H-indol-5-yl)methyl)-2-((3-methyl-8-(methylsulfonyl)quinolin-6-yl)methyl)isonicotinamide] yielded a pEC50 of 6.00 to 7.00. In the case of `Cc1cnc2c(S(C)(=O)=O)cc(Cc3cc(C(=O)NCc4n[nH]c5ccc(Cl)cc45)ccn3)cc2c1` [Example 20, N-((5-chloro-1H-indazol-3-yl)methyl)-2-((3-methyl-8-(methylsulfonyl)quinolin-6-yl)methyl)isonicotinamide], the pEC50 was at least 7.00. With `Cc1cnc2c(S(C)(=O)=O)cc(Cc3cc(C(=O)NCc4ccc5[nH]cc(Cl)c5c4F)ccn3)cc2c1` [Example 21, N-((3-chloro-4-fluoro-1H-indol-5-yl)methyl)-2-((3-methyl-8-(methylsulfonyl)quinolin-6-yl)methyl)isonicotinamide] the pEC50 was at least 7.00. Work on `Cc1nc(N)ccc1CNC(=O)c1ccnc(Cc2ccc3ncc(Cl)cc3c2)c1` [Example 34, N-((6-amino-2-methylpyridin-3-yl)methyl)-2-((3-chloroquinolin-6-yl)methyl)isonicotinamide] yielded a pEC50 of at least 7.00. Molecule `Cc1cc(N)nc(C)c1CNC(=O)c1ccnc(Cc2ccc3ncc(Cl)cc3c2)c1` [Example 35, N-((6-amino-2,4-dimethylpyridin-3-yl)methyl)-2-((3-chloroquinolin-6-yl)methyl)isonicotinamide] has a pEC50 of at least 7.00. For `O=C(NCc1cnc2[nH]cc(Cl)c2c1)c1ccnc(Cc2ccc3ncc(Cl)cc3c2)c1` [Example 38, N-(3-Chloro-1H-pyrrolo[2,3-b]pyridin-5-ylmethyl)-2-(3-chloro-quinolin-6-ylmethyl)-isonicotinamide], the pEC50 was 6.00 to 7.00. For `O=C(NCc1ccc2[nH]cc(Cl)c2c1F)c1ccnc(Cc2ccc3ncc(Cl)cc3c2)c1` [Example 40, N-(3-Chloro-4-fluoro-1H-indol-5-ylmethyl)-2-(3-chloro-quinolin-6-ylmethyl)-isonicotinamide], the pEC50 was 6.00 to 7.00. Work on `N#Cc1cc(Cc2cc(C(=O)NCc3ccc4c(N)nccc4c3)ccn2)cc2cc(Cl)cnc12` [Example 57, N-(1-amino-isoquinolin-6-ylmethyl)-2-(3-chloro-8-cyano-quinolin-6-ylmethyl)-isonicotinamide] yielded a pEC50 of 6.00 to 7.00. In the case of `NC(=O)c1cc(Cc2cc(C(=O)NCc3n[nH]c4ccc(Cl)cc34)ccn2)cc2cc(Cl)cnc12` [Example 60, 3-chloro-6-((4-(((5-chloro-1H-indazol-3-yl)methyl)carbamoyl)pyridin-2-yl)methyl)quinoline-8-carboxamide], the pEC50 was 6.00 to 7.00. `NC(=O)c1cc(Cc2cc(C(=O)NCc3cnc4[nH]cc(Cl)c4c3)ccn2)cc2cc(Cl)cnc12` [Example 61, 3-chloro-6-((4-(((3-chloro-1H-pyrrolo[2,3-b]pyridin-5-yl)methyl)carbamoyl)pyridin-2-yl)methyl)quinoline-8-carboxamide] showed a pEC50 of 6.00 to 7.00. With `Cc1nc(N)ccc1CNC(=O)c1ccnc(Cc2cc(C(N)=O)c3ncc(Cl)cc3c2)c1` [Example 62, 6-((4-(((6-amino-2-methylpyridin-3-yl)methyl)carbamoyl)pyridin-2-yl)methyl)-3-chloroquinoline-8-carboxamide] the pEC50 was at least 7.00. For `NC(=O)c1cc(Cc2cc(C(=O)NCc3ccc4c(N)nccc4c3)ccn2)cc2cc(Cl)cnc12` [Example 64, 6-((4-(((1-aminoisoquinolin-6-yl)methyl)carbamoyl)pyridin-2-yl)methyl)-3-chloroquinoline-8-carboxamide], the pEC50 was at least 7.00. Molecule `NC(=O)c1cc(Cc2cc(C(=O)NCc3ccc4[nH]cc(Cl)c4c3F)ccn2)cc2cc(Cl)cnc12` [Example 65, 3-chloro-6-((4-(((3-chloro-4-fluoro-1H-indol-5-yl)methyl)carbamoyl)pyridin-2-yl)methyl)quinoline-8-carboxamide] has a pEC50 of at least 7.00. For `NC(=O)c1cc(Cc2cc(C(=O)NCc3cc4cc[nH]c4cc3F)ccn2)cc2cc(Cl)cnc12` [Example 66, 3-chloro-6-((4-(((6-fluoro-1H-indol-5-yl)methyl)carbamoyl)pyridin-2-yl)methyl)quinoline-8-carboxamide], the pEC50 was 6.00 to 7.00. `Cc1cc(N)nc(C)c1CNC(=O)c1ccnc(Cc2cc(S(C)(=O)=O)c3ncc(Cl)cc3c2)c1` [Example 67, N-((6-amino-2,4-dimethylpyridin-3-yl)methyl)-2-((3-chloro-8-(methylsulfonyl)quinolin-6-yl)methyl)isonicotinamide] showed a pEC50 of at least 7.00. With `CS(=O)(=O)c1cc(Cc2cc(C(=O)NCc3cc4c(Cl)c[nH]c4cc3F)ccn2)cc2cc(Cl)cnc12` [Example 68, N-((3-chloro-6-fluoro-1H-indol-5-yl)methyl)-2-((3-chloro-8-(methylsulfonyl)quinolin-6-yl)methyl)isonicotinamide] the pEC50 was at least 7.00. Work on `Cc1nc(N)ccc1CNC(=O)c1ccnc(Cc2cc(S(C)(=O)=O)c3ncc(Cl)cc3c2)c1` [Example 69, N-((6-amino-2-methylpyridin-3-yl)methyl)-2-((3-chloro-8-(methylsulfonyl)quinolin-6-yl)methyl)isonicotinamide] yielded a pEC50 of at least 7.00. `Cc1cnc2c(C#N)cc(Cc3cc(C(=O)NCc4c(C)cc(N)nc4C)ccn3)cc2c1` [Example 70, N-((6-amino-2,4-dimethylpyridin-3-yl)methyl)-2-((8-cyano-3-methylquinolin-6-yl)methyl)isonicotinamide] showed a pEC50 of at least 7.00. `Cc1cnc2c(C#N)cc(Cc3cc(C(=O)NCc4ccc5c(N)nccc5c4)ccn3)cc2c1` [Example 71, N-((1-aminoisoquinolin-6-yl)methyl)-2-((8-cyano-3-methylquinolin-6-yl)methyl)isonicotinamide] showed a pEC50 of at least 7.00. With `Cc1cnc2c(C#N)cc(Cc3cc(C(=O)NCc4cnc5[nH]cc(Cl)c5c4)ccn3)cc2c1` [Example 73, N-((3-chloro-1H-pyrrolo[2,3-b]pyridin-5-yl)methyl)-2-((8-cyano-3-methylquinolin-6-yl)methyl)isonicotinamide] the pEC50 was 6.00 to 7.00. `Cc1cnc2c(C(N)=O)cc(Cc3cc(C(=O)NCc4c(C)cc(N)nc4C)ccn3)cc2c1` [Example 77, 6-((4-(((6-amino-2,4-dimethylpyridin-3-yl)methyl)carbamoyl)pyridin-2-yl)methyl)-3-methylquinoline-8-carboxamide] showed a pEC50 of at least 7.00. `Cc1cnc2c(C(N)=O)cc(Cc3cc(C(=O)NCc4cc5c(Cl)c[nH]c5cc4F)ccn3)cc2c1` [Example 78, 6-((4-(((3-chloro-6-fluoro-1H-indol-5-yl)methyl)carbamoyl)pyridin-2-yl)methyl)-3-methylquinoline-8-carboxamide] gave a pEC50 of at least 7.00. Molecule `Cc1cnc2c(C(N)=O)cc(Cc3cc(C(=O)NCc4ccc5c(N)nccc5c4)ccn3)cc2c1` [Example 79, 6-((4-(((1-aminoisoquinolin-6-yl)methyl)carbamoyl)pyridin-2-yl)methyl)-3-methylquinoline-8-carboxamide] has a pEC50 of at least 7.00. `Cc1cnc2c(C(N)=O)cc(Cc3cc(C(=O)NCc4cnc5[nH]cc(Cl)c5c4)ccn3)cc2c1` [Example 80, 6-((4-(((3-chloro-1H-pyrrolo[2,3-b]pyridin-5-yl)methyl)carbamoyl)pyridin-2-yl)methyl)-3-methylquinoline-8-carboxamide] showed a pEC50 of at least 7.00. With `Cc1cnc2c(C(N)=O)cc(Cc3cc(C(=O)NCc4cc5cc[nH]c5cc4F)ccn3)cc2c1` [Example 83, 6-((4-(((6-fluoro-1H-indol-5-yl)methyl)carbamoyl)pyridin-2-yl)methyl)-3-methylquinoline-8-carboxamide] the pEC50 was 6.00 to 7.00. In the case of `Cc1cnc2c(C(=O)O)cc(Cc3cc(C(=O)NCc4c(C)cc(N)nc4C)ccn3)cc2c1` [Example 84, 6-((4-(((6-amino-2,4-dimethylpyridin-3-yl)methyl)carbamoyl)pyridin-2-yl)methyl)-3-methylquinoline-8-carboxylic acid], the pEC50 was at least 7.00. `Cc1cc(N)nc(C)c1CNC(=O)c1ccnc(Cc2cc(F)c3ncc(Cl)cc3c2)c1` [Example 89, N-(6-amino-2,4-dimethyl-pyridin-3-ylmethyl)-2-(3-chloro-8-fluoro-quinolin-6-ylmethyl)-isonicotinamide] gave a pEC50 of at least 7.00. For `Cc1nc(N)ccc1CNC(=O)c1ccnc(Cc2cc(F)c3ncc(Cl)cc3c2)c1` [Example 91, N-(6-amino-2-methyl-pyridin-3-ylmethyl)-2-(3-chloro-8-fluoro-quinolin-6-ylmethyl)-isonicotinamide], the pEC50 was at least 7.00. For `COC(=O)c1cc(Cc2cc(C(=O)NCc3c(C)cc(N)nc3C)ccn2)cc2cc(Cl)cnc12` [Example 92, methyl 6-((4-(((6-amino-2,4-dimethylpyridin-3-yl)methyl)carbamoyl)pyridin-2-yl)methyl)-3-chloroquinoline-8-carboxylate], the pEC50 was at least 7.00. In the case of `Cc1cc(N)nc(C)c1CNC(=O)c1ccnc(Cc2cc(C(=O)O)c3ncc(Cl)cc3c2)c1` [Example 93, 6-((4-(((6-amino-2,4-dimethylpyridin-3-yl)methyl)carbamoyl)pyridin-2-yl)methyl)-3-chloroquinoline-8-carboxylic acid], the pEC50 was at least 7.00. For `Cc1nc(N)ccc1CNC(=O)c1ccnc(Cc2cc(CO)c3ncc(Cl)cc3c2)c1` [Example 97, N-((6-amino-2-methylpyridin-3-yl)methyl)-2-((3-chloro-8-(hydroxymethyl)quinolin-6-yl)methyl)isonicotinamide], the pEC50 was at least 7.00.
